Source: the NIST ThermoML archive (doi:10.1016/j.jct.2007.10.004)
Numbers after ± are expanded uncertainties.

Legend:
[1] = Molar enthalpy of transition or fusion; conditions: Crystal; DSC
[2] = Crystal
[3] = Solid-liquid equilibrium temperature; conditions: Crystal

SMILES: O=C(O)C1CCCCC1 [cyclohexanecarboxylic acid]
- Molar enthalpy of transition or fusion [1]: 2.2 ± 0.0645 kcal/mol
- Normal melting temperature ([2]; DTA): 29.8 ± 0.5 °C
- Solid-liquid equilibrium temperature ([3]; 800 kPa, visual observation): 303.15 ± 0.26 K
- Solid-liquid equilibrium temperature ([3]; 31000 kPa, visual observation): 313.15 ± 0.52 K
- Solid-liquid equilibrium temperature ([3]; 63000 kPa, visual observation): 323.15 ± 0.9 K
- Solid-liquid equilibrium temperature ([3]; 92000 kPa, visual observation): 333.15 ± 1.3 K
- Solid-liquid equilibrium temperature ([3]; 121000 kPa, visual observation): 343.15 ± 1.7 K
- Solid-liquid equilibrium temperature ([3]; 150000 kPa, visual observation): 353.15 ± 2.1 K

SMILES: CC(=O)OC1CCCCC1 [cyclohexyl ethanoate]
- Molar enthalpy of transition or fusion [1]: 0.809 ± 0.0406 kcal/mol
- Normal melting temperature ([2]; DTA): -51.70 ± 0.4 °C

SMILES: O=C(O)CC1CCCCC1 [cyclohexylethanoic acid]
- Molar enthalpy of transition or fusion [1]: 3.3 ± 0.086 kcal/mol
- Normal melting temperature ([2]; DTA): 28.8 ± 0.4 °C

SMILES: CC(=O)OCCC1CCCCC1 [cyclohexylethyl acetate]
- Normal melting temperature ([2]; DTA): -51.70 ± 0.39 °C

SMILES: CCCCCCCCO [octan-1-ol]
- Normal melting temperature [2]: -14.60 ± 0.62 °C
- Solid-liquid equilibrium temperature ([3]; 216000 kPa, Closed cell (Static) method): 303.15 ± 1.7 K
- Solid-liquid equilibrium temperature ([3]; 268000 kPa, Closed cell (Static) method): 313.15 ± 1.9 K
- Solid-liquid equilibrium temperature ([3]; 329000 kPa, Closed cell (Static) method): 323.15 ± 2 K
- Solid-liquid equilibrium temperature ([3]; 400000 kPa, Closed cell (Static) method): 333.15 ± 2.2 K
- Solid-liquid equilibrium temperature ([3]; 480000 kPa, Closed cell (Static) method): 343.15 ± 2.3 K
- Solid-liquid equilibrium temperature ([3]; 569000 kPa, Closed cell (Static) method): 353.15 ± 2.6 K
